Source: PubChem BioAssay (NCI)
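A five-concentration, 48-hour dose response in 96-well plates underlies each endpoint, interpolated linearly between surrounding concentrations. GI50 = concentration required for 50% inhibition of growth. Definition used: TGI = concentration required for complete inhibition of growth.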 Where a SMILES comes first, the peptide text is derived from it. The star is where a group is joined. Trt = c1ccc(C(c2ccccc2)(c2ccccc2)*)cc1; Cbz = O=C(OCc1ccccc1)*

Key:
Assay in all cases: growth of human tumour cells (NCI), 48 h
ACHN renal = system: ACHN renal
SF-295 CNS = system: SF-295 CNS
COLO 205 colon = system: COLO 205 colon
SF-268 CNS = system: SF-268 CNS
LOX IMVI melanoma = system: LOX IMVI melanoma
SK-MEL-2 melanoma = system: SK-MEL-2 melanoma
NCI-H226 lung = system: NCI-H226 lung
KM12 colon = system: KM12 colon
TK-10 renal = system: TK-10 renal
UO-31 renal = system: UO-31 renal

Structure (SMILES)	GI50 (ACHN renal)	TGI (ACHN renal)	GI50 (SF-295 CNS)	TGI (SF-295 CNS)	GI50 (COLO 205 colon)	TGI (COLO 205 colon)	GI50 (SF-268 CNS)	TGI (SF-268 CNS)	GI50 (LOX IMVI melanoma)	TGI (LOX IMVI melanoma)	GI50 (SK-MEL-2 melanoma)	TGI (SK-MEL-2 melanoma)	GI50 (NCI-H226 lung)	TGI (NCI-H226 lung)	GI50 (KM12 colon)	TGI (KM12 colon)	GI50 (TK-10 renal)	TGI (TK-10 renal)	GI50 (UO-31 renal)	TGI (UO-31 renal)
CC(=O)Nc1ccc(C(=O)CCl)cc1	1.8 µM	3.29 µM	16 µM	33.7 µM	1.97 µM	3.93 µM	13.9 µM	29.5 µM	1.93 µM	4.17 µM	13.3 µM	27.8 µM	16.9 µM	42.6 µM	12.2 µM	25.7 µM	2.82 µM	7.71 µM	1.71 µM	3.26 µM
NS(=O)(=O)c1ccc(Nc2cc(-c3ccc(O)c(F)c3)[nH]n2)cc1	> 25 µM	> 25 µM	> 25 µM	> 25 µM	> 25 µM	> 25 µM	10.3 µM	> 25 µM	> 25 µM	> 25 µM	11.4 µM	> 25 µM	> 25 µM	> 25 µM	10.3 µM	> 25 µM	> 25 µM	> 25 µM	> 25 µM	> 25 µM
C/C(=N\O)c1ccc2ccc3ccccc3c2c1		> 100 µM		86.9 µM		76.6 µM		> 100 µM		60.6 µM		> 100 µM		85.6 µM		45 µM		> 100 µM		> 100 µM
O=C(Nc1ccc(Oc2ccc(F)cc2)cc1)[C@@H]1C[C@@H](Cc2ccc(F)cc2)CN1C(=O)Cn1ccnn1	4.93 µM	25.2 µM	3.64 µM	14.2 µM	5.21 µM	16.8 µM	8.55 µM	33.8 µM	7.28 µM	22.2 µM	8.05 µM	23 µM	7.79 µM	29 µM	9.43 µM	24.1 µM	8.74 µM	35.3 µM	3.5 µM	25.2 µM
CN(C)c1ccc(/C=C\c2ccnc3ccccc23)cc1	20.7 µM	> 100 µM	3.56 µM	> 44.7 µM	4.75 µM	41.5 µM	21.8 µM	> 100 µM	9.82 µM	> 100 µM	21.2 µM	> 100 µM	2.86 µM	48.2 µM	3.66 µM	51 µM	14.7 µM	> 100 µM	4.4 µM	68.7 µM
Cc1cc(=O)oc2ccc(OC/C=C3\CCC(=O)O3)cc12	0.936 µM	2.14 µM	15.3 µM	41.9 µM	2.17 µM	7.24 µM	13.2 µM	43.6 µM	4.94 µM	17.2 µM	10.7 µM	30.6 µM	17.2 µM	57.2 µM	7.76 µM	25.5 µM	1.61 µM	9.23 µM	2.09 µM	10.2 µM
c1cc(N[C@@H]2CCNC2)nc(-c2cnc3ccc(-c4cn[nH]c4)cn23)c1	19.2 µM	> 100 µM	12 µM	> 55 µM	3.46 µM	9.85 µM	2.18 µM	7.1 µM	3.24 µM	15.1 µM	2.55 µM	6.82 µM	4.13 µM	> 100 µM	0.868 µM	51.4 µM	15.3 µM	62.8 µM	> 69.3 µM	> 100 µM
O=C1/C(=C/c2ccc(Cl)c(Cl)c2)CN(C(=O)C(Cl)Cl)C/C1=C\c1ccc(Cl)c(Cl)c1	0.179 µM	0.474 µM	0.154 µM	0.704 µM	0.178 µM	0.638 µM	0.243 µM	1.14 µM	0.0362 µM	0.136 µM	0.801 µM	3.14 µM	0.192 µM	0.366 µM	0.16 µM	0.587 µM	0.353 µM	1.23 µM	0.133 µM	0.267 µM
CC(C)=CCc1cc2c(cc1O)C1=C(C(=O)C3=C(C1=O)S(=O)(=O)CCN3)C(C=C(C)C)O2 (stereo not given)	2.27 µM	5.65 µM	2.38 µM	5.1 µM	0.64 µM	2.41 µM	0.917 µM	4.74 µM	0.492 µM	2.06 µM	1.44 µM	5.29 µM	1.6 µM	5.22 µM	2.05 µM	6.99 µM	4.96 µM	10.4 µM	1.82 µM	4.59 µM
COC(=O)C(CO)NC(=O)C(CSC(c1ccccc1)(c1ccccc1)c1ccccc1)NC(=O)OCc1ccccc1 (stereo not given) (Cbz-Cys(Trt)-Ser-OMe; configuration not given here)		> 53.3 µM		34.5 µM		32.4 µM		44.9 µM		30.1 µM		34.5 µM		26.4 µM		31.3 µM		> 66.1 µM		28.5 µM
COc1cc(/C=C2\C(=O)N(Cc3ccc(Cl)cc3)c3ccccc32)cc(OC)c1OC	2.9 µM	8.37 µM	4.41 µM	32.3 µM	3.15 µM	8.52 µM	2.76 µM	13.7 µM	1.59 µM	3 µM	4.86 µM	18 µM	5.2 µM	19.9 µM	2.19 µM	5.7 µM	3.09 µM	30.1 µM	2.06 µM	6.8 µM
NC1NC=NC2C1N=CN2C1OC(CO)C2[O][Sn][O]C21 (stereo not given)	> 100 µM	> 100 µM	> 100 µM	> 100 µM	> 100 µM	> 100 µM	> 100 µM	> 100 µM	> 100 µM	> 100 µM	> 100 µM	> 100 µM	> 100 µM	> 100 µM	> 100 µM	> 100 µM	> 100 µM	> 100 µM	> 100 µM	> 100 µM
